Data published in patent publication US20130203718A1 (priority 2010, published 2013).

Assays:
[1] = molecular target: T1, hAR (Homo sapiens, UniProt P10275); experiment: APRn selectivity: transactivation in HEK293T cells transiently expressing hAR; format: cell-based; details: HEK293T, FIG. 11
T1 construct: expressed in transfected cells; host or cells: HEK 293T
T1 sequence (P10275 1-920): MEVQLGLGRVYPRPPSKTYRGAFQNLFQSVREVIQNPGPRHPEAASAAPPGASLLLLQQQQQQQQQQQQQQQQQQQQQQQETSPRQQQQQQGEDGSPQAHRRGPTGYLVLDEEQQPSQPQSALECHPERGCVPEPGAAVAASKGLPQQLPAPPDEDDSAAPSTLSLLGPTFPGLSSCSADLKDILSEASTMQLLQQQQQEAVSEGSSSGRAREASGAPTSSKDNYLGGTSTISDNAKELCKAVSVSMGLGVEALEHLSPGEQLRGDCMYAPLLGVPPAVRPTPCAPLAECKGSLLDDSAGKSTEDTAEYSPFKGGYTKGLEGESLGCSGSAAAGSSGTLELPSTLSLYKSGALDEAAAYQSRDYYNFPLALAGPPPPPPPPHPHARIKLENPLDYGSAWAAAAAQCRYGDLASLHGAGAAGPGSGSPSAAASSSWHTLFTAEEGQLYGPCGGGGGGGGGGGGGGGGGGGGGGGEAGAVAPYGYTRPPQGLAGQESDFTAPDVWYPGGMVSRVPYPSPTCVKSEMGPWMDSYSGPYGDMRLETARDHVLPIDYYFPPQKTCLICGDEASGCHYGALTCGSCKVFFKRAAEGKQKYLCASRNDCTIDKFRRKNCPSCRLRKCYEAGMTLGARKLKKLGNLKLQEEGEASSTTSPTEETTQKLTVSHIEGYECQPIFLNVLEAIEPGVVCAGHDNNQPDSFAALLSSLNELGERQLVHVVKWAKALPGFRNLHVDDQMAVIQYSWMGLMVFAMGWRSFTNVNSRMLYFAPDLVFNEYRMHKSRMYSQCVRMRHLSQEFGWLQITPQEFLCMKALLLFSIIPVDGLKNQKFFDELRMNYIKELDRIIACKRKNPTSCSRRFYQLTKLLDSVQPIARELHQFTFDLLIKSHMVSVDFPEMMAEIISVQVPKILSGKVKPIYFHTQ
Experimental: Measurement of the APRn Selectivity in HEK 293T.
The HEK-293T cells were cultured and transfected according to the method described above for the PR transactivation assays. The expression vectors pcDNA-hAR, kindly provided by G. A. Coetzee, pchGR (Hellal-Levy, C et al. FEBS Lett 1999, 464, 9), and pchMR (Fagart, J. et al. EMBO J. 1998, 17, 3317) were used for studying the ability of APRn to activate or inactivate the AR, GR and MR, respectively. For each transfection assays, 2 μg of the expression vector was used together with 7 μg of the GRE2-Luc reporter vector. Dihydrotestosterone (DHT), dexamethasone (Dex) and Aldosterone (Aldo) were selected as AR, GR and MR ligands, respectively. They were used at the concentration of 10^−9 M. The APRn agonist and antagonist efficacy for AR, GR and MR were measured as described above for PR. The results are the mean±SEM of three independent experiments.
Transfection assays were performed in HEK 293T cells by using expression vectors for the hAR, hGR and hMR and the GRE2-Luc reporter used for the PR transactivation assays.

[2] = molecular target: T2, hPRB (Homo sapiens, UniProt P06401); experiment: PR transactivation assay (GRE2-Luc) in HEK293T cells transiently expressing hPRB; format: cell-based; parameters: expressed in transfected cells; host or cells: HEK 293T; details: series 1 (no C3 substituent), HEK293T, APRn 1 μM, FIG. 1
T2 sequence (P06401 1-933): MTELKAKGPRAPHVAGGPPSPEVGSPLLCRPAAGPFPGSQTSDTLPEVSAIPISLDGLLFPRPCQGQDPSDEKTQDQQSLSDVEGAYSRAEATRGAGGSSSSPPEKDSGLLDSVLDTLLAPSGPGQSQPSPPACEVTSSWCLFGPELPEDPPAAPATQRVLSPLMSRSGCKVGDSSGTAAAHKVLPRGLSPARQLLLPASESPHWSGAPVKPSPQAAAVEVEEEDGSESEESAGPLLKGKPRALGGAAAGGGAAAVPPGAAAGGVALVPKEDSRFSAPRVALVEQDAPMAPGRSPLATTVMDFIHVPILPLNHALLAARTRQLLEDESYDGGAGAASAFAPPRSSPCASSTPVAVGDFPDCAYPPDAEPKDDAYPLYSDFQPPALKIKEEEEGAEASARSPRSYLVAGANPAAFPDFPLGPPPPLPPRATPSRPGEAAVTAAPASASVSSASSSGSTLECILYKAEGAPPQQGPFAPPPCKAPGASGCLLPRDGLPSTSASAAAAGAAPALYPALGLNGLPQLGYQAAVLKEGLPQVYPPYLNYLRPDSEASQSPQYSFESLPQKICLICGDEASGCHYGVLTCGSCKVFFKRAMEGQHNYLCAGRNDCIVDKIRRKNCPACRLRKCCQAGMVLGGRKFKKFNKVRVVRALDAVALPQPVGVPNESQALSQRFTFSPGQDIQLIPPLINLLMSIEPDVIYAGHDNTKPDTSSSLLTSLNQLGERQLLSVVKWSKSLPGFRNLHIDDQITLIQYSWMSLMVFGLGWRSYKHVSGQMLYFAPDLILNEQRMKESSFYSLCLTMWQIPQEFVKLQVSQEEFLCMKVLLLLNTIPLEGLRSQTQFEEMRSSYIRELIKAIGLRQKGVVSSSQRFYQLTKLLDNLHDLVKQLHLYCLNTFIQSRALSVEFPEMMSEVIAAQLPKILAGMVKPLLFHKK
Experimental: PR Transactivation Assays in HEK 293T.
HEK 293T cells were routinely cultured in a high-glucose DMEM medium (Invitrogene, Cergy Pontoise, France), 20 mM HEPES, 2 mM glutamine, 1× non essential amino acids, 100 U/mL penicillin and 100 μg/mL streptomycin supplemented with 10% foetal calf serum (FCS) in a humidified atmosphere at 37° C. and with 5% CO2. One day before transfection, the cells were seeded at 3×10^6 cells/[…] diameter culture Petri dish and cultured overnight in the same medium. Six hours before transfection, the FCS supplemented medium was replaced by the same medium supplemented with 10% dextran-charcoal treated FCS. Transfections were carried out using the calcium phosphate precipitation method. The calcium phosphate precipitate was prepared with 0.5 μg pchPRB (Petit-Topin, et al Mol Pharmacol, 2009, 75, 1317), 7 μg reporter vector (GRE2-Luc from A. Biola-Vidamment and M. Pallardy) and 1 μg of pcβgal for an internal transfection control, in 1 mL 140 mM NaCl, 0.75 mM Na2HPO4, 25 mM HEPES, 125 mM CaCl2 pH 7.05 and added to the cells 30 minutes later. After 16 h incubation, the transfected cells were washed with PBS containing 2.5 mM EDTA, trypsinized and pooled. The transfected cells were replated in 24-well plates (100.000 transfected cells/well). […] Cells were lysed in 300 μl PBS 1×, 25 mM glycylglycine, 4 mM EDTA, 15% glycerol, 1% triton X-100, 15 mM MgSO4, pH 7.8 supplemented with 2 mM β-mercaptoethanol. The luciferase activities were quantified by using a Mithras LB940 reader microplates (Berthold).
The APRn “agonist efficacy” was determined from the following formula:
Agonist efficacy=[luciferase activity]1/[luciferase activity]2×100
The APRn “antagonist efficacy” was calculated from the following formula:
Antagonist efficacy=100−[luciferase activity]1/[luciferase activity]2×100
The results are the mean±SEM of three to five independent experiments.
All the synthesized APRn were classified in 4 series depending on the nature of their C3 substituent (R1/R′1 groups). The first one (series 1) includes APRn with no C3 substituent (R1═R′1═H) whereas series 2, 3 and 4 are related to APRn bearing a methoxyl (R1═OMe), a hydroxyl (R1═OH) and a fluorine atom (R1═F), respectively. The agonist/antagonist activities of APRn were determined either in human HEK293T cells transiently expressing hPRB or in human MDA-MB-231 iPRAB cells conditionally expressing hPRB, by using a luciferase reporter gene placed under the control of a glucocorticoid response element (GRE2-Luc). The APRn “agonist efficacy” was determined from the luciferase activity measured in the presence of APRn (1 μM). […] The “agonist efficacy” and “antagonist efficacy” are expressed as defined in the biological protocols section.

Question: What does the source list for CC(=O)O[C@H]1CCC2C3CC=C4C=CCC[C@@H]4C3CC[C@@]21C (stereo partly drawn) [APR-49, 17β-Acetoxy-19-nor-androst-3,5-diene]?
Answer: agonist efficacy towards hAR (in words) [1]: high potent hAR agonists; hPRB agonist/antagonist character (in words) [2]: full antagonists; melting point: 94 to 95 °C
